In the supplement of paper PMC13380429:

Assays:
Settings in all cases: 72 h
Caco-2 [1] = assay: cell viability relative to DMSO; higher = less toxic
Calu-3 [2] = assay: as above
HepG2 [3] = assay: as above
U2OS [4] = assay: as above
Vero E6 [5] = assay: as above
Caco-2 [6] = assay: relative viability EC50 (midpoint between 100% and the lowest measured viability); higher = less toxic
Calu-3 [7] = assay: as above
HepG2 [8] = assay: as above
U2OS [9] = assay: as above
Vero E6 [10] = assay: as above
Caco-2 [11] = assay: drug sensitivity score (DSS) for viability; higher = more toxic; extreme values may be limits of the assay
Calu-3 [12] = assay: as above
HepG2 [13] = assay: as above
U2OS [14] = assay: as above
Vero E6 [15] = assay: as above

Row | SMILES | cell viability (Caco-2 [1]; 1 nM) [%] | cell viability (Caco-2 [1]; 10 nM) [%] | cell viability (Caco-2 [1]; 100 nM) [%] | cell viability (Caco-2 [1]; 1000 nM) [%] | cell viability (Caco-2 [1]; 10000 nM) [%] | cell viability (Calu-3 [2]; 1 nM) [%] | cell viability (Calu-3 [2]; 10 nM) [%] | cell viability (Calu-3 [2]; 100 nM) [%] | cell viability (Calu-3 [2]; 1000 nM) [%] | cell viability (Calu-3 [2]; 10000 nM) [%] | cell viability (HepG2 [3]; 1 nM) [%] | cell viability (HepG2 [3]; 10 nM) [%] | cell viability (HepG2 [3]; 100 nM) [%] | cell viability (HepG2 [3]; 1000 nM) [%] | cell viability (HepG2 [3]; 10000 nM) [%] | cell viability (U2OS [4]; 1 nM) [%] | cell viability (U2OS [4]; 10 nM) [%] | cell viability (U2OS [4]; 100 nM) [%] | cell viability (U2OS [4]; 1000 nM) [%] | cell viability (U2OS [4]; 10000 nM) [%] | cell viability (Vero E6 [5]; 1 nM) [%] | cell viability (Vero E6 [5]; 10 nM) [%] | cell viability (Vero E6 [5]; 100 nM) [%] | cell viability (Vero E6 [5]; 1000 nM) [%] | cell viability (Vero E6 [5]; 10000 nM) [%] | relative viability EC50 (Caco-2 [6]) [µM] | relative viability EC50 (Calu-3 [7]) [µM] | relative viability EC50 (HepG2 [8]) [µM] | relative viability EC50 (U2OS [9]) [µM] | relative viability EC50 (Vero E6 [10]) [µM] | drug sensitivity score (Caco-2 [11]) | drug sensitivity score (Calu-3 [12]) | drug sensitivity score (HepG2 [13]) | drug sensitivity score (U2OS [14]) | drug sensitivity score (Vero E6 [15])
1 | CS(=O)(=O)n1cc2c(n1)CN([C@H]1CO[C@H](c3cc(F)ccc3F)[C@@H](N)C1)C2 [omarigliptin] | 92.5 | 101 | 95.4 | 97.5 | 106 | 98.4 | 97.7 | 88.4 | 108 | 100 | 103 | 106 | 101 | 99.7 | 103 | 97.8 | 96.8 | 94.2 | 101 | 104 | 97.8 | 103 | 95.5 | 98.7 | 103 | > 10 | > 10 | > 10 | > 10 | > 10 | 0 | 0 | 0 | 0 | 0
2 | CCN(C(=O)c1c(O)c2c(Cl)cccc2n(C)c1=O)c1ccccc1 [laquinimod] | 90.3 | 88.5 | 98.2 | 106 | 91.5 | 110 | 87.9 | 91.5 | 108 | 102 | 102 | 98.6 | 103 | 93.4 | 92.8 | 96.9 | 98.9 | 99.2 | 97.6 | 96.9 | 99.8 | 99.9 | 92.8 | 92.5 | 91.4 | > 10 | > 10 | > 10 | > 10 | > 10 | 0 | 0 | 0 | 0 | 0
3 | C[C@H](Cc1ccc2c(c1)OC(C(=O)O)(C(=O)O)O2)NC[C@H](O)c1cccc(Cl)c1 | 103 | 101 | 104 | 97.3 | 111 | 103 | 101 | 90.6 | 92.9 | 91.1 | 97.9 | 101 | 103 | 101 | 97.4 | 104 | 101 | 99.1 | 99 | 102 | 97.5 | 97.2 | 93.1 | 96.4 | 97.9 | > 10 | > 10 | > 10 | > 10 | > 10 | 0 | 0 | 0 | 0 | 0
4 | CCN(C(C)=O)c1cccc(-c2ccnc3c(C#N)cnn23)c1 [ZALEPLON] | 96.6 | 102 | 100 | 104 | 96.4 | 93.9 | 96.7 | 96.7 | 86.1 | 90.7 | 90.5 | 95.6 | 91 | 105 | 89.3 | 105 | 104 | 102 | 103 | 96 | 97.5 | 99.2 | 99.3 | 101 | 95 | > 10 | > 10 | > 10 | > 10 | > 10 | 0 | 0 | 0 | 0 | 0
5 | CC(C)[C@@H](CN1CC[C@@](C)(c2cccc(O)c2)[C@@H](C)C1)NC(=O)[C@H]1Cc2ccc(O)cc2CN1 [JDTic] | 91.9 | 95.2 | 96.7 | 93.3 | 98.5 | 103 | 103 | 95 | 109 | 83.2 | 100 | 95.6 | 99.4 | 101 | 99.6 | 96.7 | 104 | 95.5 | 101 | 102 | 99.4 | 98 | 97.6 | 95.1 | 102 | > 10 | > 10 | > 10 | > 10 | > 10 | 0 | 0.2 | 0 | 0 | 0
6 | COc1ccc(-c2cc(=O)c3c(OC)c(OC)c(OC)c(OC)c3o2)cc1 [tangeritin] | 95.1 | 89.6 | 99 | 103 | 91.7 | 106 | 99.6 | 103 | 100 | 92.3 | 94.2 | 101 | 95.2 | 107 | 105 | 98.5 | 94.3 | 98.9 | 97.4 | 89.8 | 91.8 | 98.7 | 92.4 | 98 | 97 | > 10 | > 10 | > 10 | > 10 | > 10 | 0 | 0 | 0 | 0 | 0
7 | CC(=O)Oc1cccc(C(=O)O)c1OC(C)=O [dipyrocetyl] | 99.9 | 90.2 | 100 | 97 | 92 | 93.8 | 92.9 | 85.2 | 99.8 | 86.8 | 96 | 95.9 | 97.8 | 89.5 | 96.9 | 103 | 96.8 | 101 | 101 | 101 | 101 | 105 | 103 | 99.4 | 101 | > 10 | > 10 | > 10 | > 10 | > 10 | 0 | 0 | 0 | 0 | 0
8 | COc1nccc(-c2c(-c3ccc(F)cc3)ncn2C2CCNCC2)n1 | 95.8 | 95.7 | 87.6 | 95.2 | 87.8 | 87.3 | 93.7 | 90.7 | 95.7 | 83.3 | 93.9 | 99.8 | 104 | 88.4 | 94.6 | 96.3 | 99.5 | 97.1 | 96.9 | 90 | 100 | 97 | 94.4 | 83.6 | 89 | > 10 | > 10 | > 10 | > 10 | > 10 | 0 | 0 | 0.4 | 0 | 1.4
9 | O=C(O)/C=C/CO [trans-4-hydroxycrotonic-acid] | 96.2 | 93.5 | 97.6 | 103 | 99.8 | 109 | 95.3 | 102 | 97.1 | 100 | 94.7 | 92 | 98 | 113 | 102 | 98.3 | 99.7 | 102 | 98.2 | 98.9 | 97 | 102 | 94.8 | 101 | 106 | > 10 | > 10 | > 10 | > 10 | > 10 | 0 | 0 | 0 | 0 | 0
10 | CCn1cc(C(=O)O)c(=O)c2ccc(C)nc21 [nalidixic-acid] | 96.3 | 94.4 | 93.2 | 99.9 | 96.8 | 96.8 | 89 | 100 | 93 | 102 | 106 | 108 | 90 | 102 | 95.6 | 100 | 95.8 | 100 | 98.3 | 104 | 113 | 107 | 104 | 101 | 89.4 | > 10 | > 10 | > 10 | > 10 | > 10 | 0 | 0 | 0 | 0 | 0
11 | CCCCCC(C)N (stereo not given) [tuaminoheptane] | 90.7 | 89.6 | 95.9 | 96.8 | 87.6 | 90.3 | 98.6 | 109 | 107 | 104 | 103 | 94.9 | 83 | 88.8 | 90.8 | 100 | 101 | 97.5 | 99.9 | 96.4 | 96.4 | 103 | 97.9 | 95 | 94.4 | > 10 | > 10 | > 10 | > 10 | > 10 | 0 | 0 | 4.1 | 0 | 0
12 | CC1C(=O)OC2C(O)C34C5CC(C(C)(C)C)C36C(OC(=O)C6O)OC4(C(=O)O5)C12O (stereo not given) [ginkgolide-B] | 98 | 93.4 | 102 | 93.8 | 92.8 | 106 | 90.8 | 103 | 98.6 | 106 | 110 | 98.4 | 99 | 97.3 | 97.5 | 106 | 102 | 106 | 96.2 | 104 | 100 | 101 | 97.1 | 98.9 | 100 | > 10 | > 10 | > 10 | > 10 | > 10 | 0 | 0 | 0 | 0 | 0
13 | COc1ccc(CCN(C)CCc2ccc(OC)c(OC)c2)cc1OC [YS-035] | 95.6 | 100 | 90.6 | 90.4 | 97.4 | 98.2 | 106 | 93.9 | 95.5 | 102 | 101 | 103 | 105 | 96.3 | 110 | 99.3 | 106 | 96.7 | 99.9 | 96.6 | 100 | 99.9 | 98.3 | 97.8 | 101 | > 10 | > 10 | > 10 | > 10 | > 10 | 0 | 0 | 0 | 0 | 0
14 | CC(=O)N1CCC(NC(=O)c2ccc(F)cc2)CC1 [FK-962] | 101 | 97.4 | 104 | 108 | 114 | 108 | 98.7 | 101 | 99.5 | 95.8 | 107 | 104 | 134 | 92.6 | 108 | 97.8 | 97.9 | 98.6 | 103 | 94.4 | 98.1 | 87.7 | 98.3 | 88.5 | 94.3 | > 10 | > 10 | > 10 | > 10 | > 10 | 0 | 0 | 0 | 0 | 0
